This is an account of results in the Bradley open melting point set (2014).

Structures are written as SMILES. “And” between values parts separate entries of the source, which are not always exact repeats. Identical values can stand only once.

With `N[C@@H](Cc1cc(I)c(Oc2cc(I)c(O)c(I)c2)c(I)c1)C(=O)O` [Levothyroxine], the melting point was 236 °C.

For `Cc1ccccc1Cc1ccccc1` [2-methyldiphenylmethane], the melting point is 7 °C.

In turn, `CCCC(C)=O` [2-pentanone] gave a melting point of -78 °C.

Take `CC12CCC(=O)C=C1CCC1C2CCC2(C)C(O)CCC12` (centres undefined) [testosterone]: the melting point came out at 153 °C.

In the case of `O=C(O)c1cc(-c2ccc(F)cc2F)ccc1O` [diflunisal], the melting point came to 210 °C.

In turn, `Cc1cc(CC(=O)O)n(C)c1C(=O)c1ccc(Cl)cc1` [Zomepirac] gave a melting point of 178 °C.

The molecule `C=CCCl` [3-Chloroprop-1-ene] displayed a melting point of -134 °C.

The molecule `O=C=N/C1CCCCC1` [Isocyanatocyclohexane] registered a melting point of -80 °C.

In turn, `CCC(CC)C(=O)O` [2-ethylbutyric acid] displayed a melting point of -15 °C.

Take `CC(C)(C)OC(=O)N1CCS[C@H]1C(=O)O` [(S)-3-boc-thiazolidine-2-carboxylic acid]: the melting point is 92 °C.

`CN(C)c1ccc(C2CNCCN2)cc1` (centres undefined) [N,N-dimethyl-4-(2-piperazinyl)aniline]: the melting point was 128 °C.

As to `CC(C)(C)OC(=O)Nc1ccc(C#N)cn1` [2-(boc-amino)-5-cyanopyridine], the melting point amounted to 173 °C.

Turning to `Cc1cc2ccccc2[n+]([O-])c1` [3-methylquinoline n-oxide], the melting point is 89 °C.

Regarding `CCCCCCC=O` [heptanal], the melting point was -43 °C.

In the case of `COc1ccc2cc(C(C)COC(C)=O)ccc2c1` (centres undefined) [Naproxol acetate], the melting point is 61 °C.

Molecule `CC(C)(C)OC(=O)N[C@](C)(C(=O)O)c1ccc2ccccc2c1` [N-boc-2-(2-naphthyl)-D-alanine] came in with a melting point of 98 °C.

Consider `O=C(/C=C/c1ccccc1)c1ccccc1` [trans-chalcone], for which the melting point was determined as 56 °C.

The molecule `O=C1CCC(N2C(=O)c3ccccc3C2=O)C(=O)N1` (centres undefined) [Thalidomide] showed a melting point of 275 °C.

Regarding `CC1(C)[C@@H]2CC[C@@]1(C)[C@@H](O)C2` [borneol], the melting point came out at 207 °C.

`c1ccc2c(c1)ccc1ccccc12` [phenanthracene]: the melting point is 99 °C.

As for `OB(O)c1ccc(Br)c(F)c1F` [4-bromo-2,3-difluorobenzeneboronic acid], the melting point was 225 °C.

Molecule `c1ccc(COCc2ccccc2)cc1` [benzyl_ether] showed a melting point of 3 °C.

`Clc1cccc(I)c1Cl` [1,2-dichloro-3-iodobenzene] returned a melting point of 35 °C.

The molecule `C=CCC1(CC(C)C)C(=O)NC(=O)NC1=O` [butalbital] yielded a melting point of 138 °C.

`CC(C)NCC(O)c1cc(O)cc(O)c1` (centres undefined) [Orciprenaline] showed a melting point of 100 °C.

`O=C1Nc2c(Cl)ccc(Cl)c2C1=O` [4,7-dichloroisatin] yielded a melting point of 248 °C.

`CCOC(=O)c1ccc(C(C)=O)cc1` [ethyl_p-acetylbenzoate] returned a melting point of 55 °C.

`Cc1cccc([N+](=O)[O-])c1` [3-nitrotoluene] displayed a melting point of 16 °C.

In the case of `C=CCCCCCCCCCCC` [1-tridecene], the melting point was -23 °C.

In turn, `O=Cc1cccc(O)c1O` [2,3-dihydroxybenzaldehyde] registered a melting point of 108 °C.

`O=C(c1ccccc1)N(O)c1ccccc1` [N-benzoyl-N-phenylhydroxylamine] gave a melting point of 119 °C.

On to `N#CCCCCCCCCCCC#N` [1,10-decanedicarbonitrile], for which the melting point came out at 18 °C.

Regarding `O=Cc1ccc(B(O)O)cc1F` [3-fluoro-4-formylbenzeneboronic acid], the melting point was 240 °C.

Molecule `Nc1ccc([N+](=O)[O-])cc1Cl` [2-Chloro-4-nitroaniline] had a melting point of 108 °C.

Consider `CC12CCC(=O)CC1CCC1C2CCC2(C)C1CCC2(O)CCc1ccccc1` (centres undefined) [17-hydroxy-21-phenylpregnan-3-one], for which the melting point was found to be 177 °C.

`Cc1ccc(F)c(C=O)c1Cl` [2-chloro-6-fluoro-3-methylbenzaldehyde] returned a melting point of 27 °C.

With `CCN(CC)c1ccc(C=NO)cc1` [4-diethylaminobenzaldoxime], the melting point is 96 °C.

The molecule `CCC(=O)OC(=O)CC` [Propanoic anhydride] registered a melting point of -45 °C.

On to `CCOC(=O)c1ccc(O)cc1` [ethylparaben], for which the melting point worked out at 116 °C.

The molecule `O=C1C(c2ccccn2)=Nc2ccccc21` [2-pyridin-2-yl-3H-indol-3-one] returned a melting point of 186 °C.

`C[C@H]1C[C@H]2[C@@H]3CCC4=CC(=O)C=C[C@]4(C)[C@@]3(F)[C@@H](O)C[C@]2(C)[C@@]1(O)C(=O)CO` [betamethasone] yielded a melting point of 232 °C.

`N#Cc1ccc(F)cc1` [4-fluorobenzonitrile] gave a melting point of 36 °C.

The molecule `O=C(CCl)Oc1ccc([N+](=O)[O-])cc1` [4-nitrophenyl chloroacetate] displayed a melting point of 94 °C.

`C/C=C/C=C/CO` [trans,trans-2,4-hexadien-1-ol] gave a melting point of 31 °C.

Take `Cc1cccc2ccccc12` [1-methylnaphthalene]: the melting point is -22 °C.

In the case of `CCCOc1ccc2[nH]c(NC(=O)OC)nc2c1` [oxibendazole], the melting point amounted to 230 °C.

For `O=C(Cl)c1cccc(C(=O)Cl)c1` [isophthaloyl dichloride], the melting point was determined as 44 °C.

The molecule `Cc1cc(C)c(C)c(CCl)c1C` [3-(chloromethyl)-1,2,4,5-tetramethylbenzene] came in with a melting point of 70.5 °C.

As to `O=C(O)c1ccccc1-c1ccccc1` [o-phenylbenzoic_acid], the melting point was found to be 115 °C.

In turn, `CCOC(=O)Cc1cc(/C(=N/Nc2ccccc2)C(=O)OCC)c([N+](=O)[O-])cc1[N+](=O)[O-]` came in with a melting point of 155 °C.

Regarding `CC(C(=O)O)c1ccc(-c2ccccc2)c(F)c1` (centres undefined) [Flurbiprofen], the melting point stood at 110 °C.

Regarding `C=C(C)CC1(CC)C(=O)NC(=S)NC1=O` [methallatal], the melting point was determined as 160 °C.

For `CC[C@H]1OC(=O)[C@H](C)[C@@H](O[C@H]2C[C@@](C)(OC)[C@@H](O)[C@H](C)O2)[C@H](C)[C@@H](O[C@@H]2O[C@H](C)C[C@H](N(C)C)[C@H]2O)[C@](C)(O)C[C@@H](C)C(=O)[C@H](C)[C@@H](O)[C@]1(C)O` [Erythromycin], the melting point is 191 °C.

On to `O=[N+]([O-])c1cc([N+](=O)[O-])c2ccccc2c1O` [2,4-dinitro-1-naphthol], for which the melting point amounted to 132 °C.

Molecule `Nc1ccc(O)cc1` [p-aminophenol] yielded a melting point of 189 °C.

The molecule `Cc1cc(Cl)c(C)cc1Cl` [2,5-Dichloro-p-xylene] came in with a melting point of 70 °C.

`Oc1c(F)ccc(F)c1F` [2,3,6-trifluorophenol]: the melting point is 34 °C.

The molecule `C1CCC(NC2CCCCC2)CC1` [dicyclohexylamine] came in with a melting point of -2 °C.

`C=CCI` [allyl iodide]: the melting point was -99 °C.

For `C[C@H](O)[C@@H](C)O` [meso-2,3-butanediol], the melting point was 34.5 °C and 33 °C.

On to `CC(Oc1ccc(Cl)cc1Cl)C(=O)O` (centres undefined) [dichlorprop], for which the melting point amounted to 118 °C.

`O=C(Cl)c1ccc(F)cc1` [4-fluorobenzoyl chloride] displayed a melting point of 10 °C.

On to `O=C(C(=O)c1ccccc1)c1ccccc1` [Benzil], for which the melting point is 95 °C.

`C=CC(=O)OCCCC` [N-butyl acrylate] registered a melting point of -64 °C.

Consider `CC(C)(F)C(Br)C(=O)O` (centres undefined) [2-bromo-3-fluoroisovaleric acid], for which the melting point amounted to 54 °C.

The molecule `N#Cc1ccccc1Cl` [2-chlorobenzonitrile] displayed a melting point of 45 °C.

`CCC1(CCC(C)C)C(=O)NC(=O)NC1=O` [Inmetal] came in with a melting point of 156 °C.

On to `O=S(=O)(Cl)c1ccc2c(c1)OCCO2` [1,4-benzodioxane-6-sulfonyl chloride], for which the melting point is 66 °C.

In turn, `Nc1cc(C(=O)O)ccc1Cl` [3-amino-4-chlorobenzoic acid] had a melting point of 216 °C.

Molecule `OC[C@@H](O)[C@@H](O)[C@H](O)[C@@H](O)CO` [D-sorbitol] gave a melting point of 99 °C.

The molecule `CC12CCC3C(CCC4CC(=O)CCC43C)C1CCC2=O` (centres undefined) [androstane-3,17-dione] came in with a melting point of 132 °C.

As to `CCNc1nc(Cl)nc(NC(C)C)n1` [atrazine], the melting point was 175 °C and 177 °C.

Molecule `CCCCCCCCCCCCCCCCO` [Hexadecan-1-ol] came in with a melting point of 50 °C.

`CC(CC1CC(=O)c2c3c(c4ccccc4c2O1)OC1CC(=O)OC31)O[Si](C)(C)C(C)(C)C` (centres undefined) yielded a melting point of 132 °C.

With `Cc1ncc(CO)c(CO)c1O` [Pyridoxine], the melting point is 160 °C.

Molecule `COc1ccc(OC)c(C(C)=O)c1` [2',5'-dimethoxyacetophenone] gave a melting point of 19 °C.

In turn, `CCCCCCCCCCCCCCc1ccccc1` [N-tetradecylbenzene] gave a melting point of 9 °C.

`COc1cc(C=O)cc(OC)c1` [3,5-dimethoxybenzaldehyde] had a melting point of 46.3 °C.

In turn, `Cc1cn(C2CC(N=[N+]=[N-])C(CO)O2)c(=O)[nH]c1=O` (centres undefined) [zidovudine] yielded a melting point of 106 °C.

In the case of `CC(=O)/C(=N/Nc1cccc(C(F)(F)F)c1)C(=O)C(F)(F)F`, the melting point was determined as 86 °C.

For `ClC(Cl)C(Cl)(Cl)Cl` [pentachloroethane], the melting point is -29 °C.

Consider `O=Cc1ccccc1[N+](=O)[O-]` [o-nitrobenzaldehyde], for which the melting point was 46 °C.

Consider `N#Cc1c(N)sc2c1CCCC2` [2-Amino-4,5,6,7-tetrahydrobenzo(b)thiophene-3-carbonitrile], for which the melting point was 143 °C.

`O=C(O)c1cc(B(O)O)ccc1F` [3-carboxy-4-fluorobenzeneboronic acid]: the melting point came to 218 °C.

`CCN(CC)C(=S)SSC(=S)N(CC)CC` [disulfiram] returned a melting point of 70 °C.

The molecule `O=C(O)c1cccc(Br)c1` [3-bromobenzoic acid] registered a melting point of 156 °C.

As for `CCOC(=O)CCC(=O)OCC` [diethyl_succinate], the melting point was -20 °C.

In turn, `C#CC(C)(C)C` [3,3-dimethyl-1-butyne] returned a melting point of -78 °C.

For `O=C(c1ccco1)C(O)c1ccco1` (centres undefined) [2,2'-furoin], the melting point was determined as 138 °C.
